# How the values were obtained:
# Assay type in all cases: cell-based, human
# [1] = test system: ppRb in MM1-144; assay: Western blot of ppRb; details: MM1-144, 1 nM, 48 hours
# Description: (§1) Cells were lysed using RIPA buffer (50 mM Tris HCl pH 8, 150 mM NaCl, 1% NP-40, 0.5% sodium deoxycholate, 0.1% SDS) containing a protease inhibitor cocktail (Roche Applied Science, Indianapolis, Ind.). The cytosolic fractions were reduced with β-mercaptoethanol and separated by SDS-PAGE. Following transfer to nitrocellulose membrane (Whatman, Piscataway, N.J.) and blocking, samples were incubated with the following primary rabbit antibodies: anti-IRF4 (Epitomics, Berlingham, Calif.), anti-glyceraldehyde-3-phosphate dehydrogenase (GAPDH; Sigma), anti-ppRb Ser807/811 (Santa Cruz Biotechnology, Santa Cruz, Calif.), anti-cyclin D (Millipore, Billerica, Mass.), or anti-β tubulin (Abcam, Cambridge, Mass.). Secondary anti-rabbit IgG-HRP (GE Healthcare, Billerica, Mass.) was used and the blots were developed using enhanced chemiluminescence (ECL; Thermo Scientific, Waltham, Mass.).
# (§2) Cells were lysed using RIPA buffer (50 mM Tris-HCl pH 8, 150 mM NaCl, 1% NP-40, 0.5% sodium deoxycholate, 0.1% SDS) containing a protease inhibitor cocktail (Roche Applied Science). The cytosolic fractions were reduced with β-mercaptoethanol and separated by SDS PAGE. Following transfer to nitrocellulose membrane (Whatman) and blocking, samples were incubated with the following primary rabbit antibodies: anti-IRF-4 (Epitomics), anti-glyceraldehyde-3-phosphate dehydrogenase (GAPDH; Sigma), or anti-ppRb Ser807/811 (Santa Cruz Biotechnology). Secondary anti-rabbit IgG-HRP (GE Healthcare) was used and the blots were developed using enhanced chemiluminescence (ECL; Thermo Scientific). Films were imaged using a Multilmage™ Light Cabinet (Alpha Innotech Corp.) and analyzed using NIH Image J. Bands were normalized to a GAPDH loading control and expressed as percentage band intensity of untreated cells.
# [2] = test system: ppRb in OCI-My5; assay: Western blot of ppRb; details: OCI-My5, 1 nM, 48 hours
# Description: as §1, §2
# [3] = test system: ppRb in NCI-H929; assay: Western blot of ppRb; details: NCI-H929, 1 nM, 48 hours
# Description: as §1, §2
# [4] = test system: IRF-4 in U266; assay: Western blot of IRF-4; details: U266, 1 nM, 2 days
# Description: as §1
# Cells were lysed using RIPA buffer (50 mM Tris-HCl pH 8, 150 mM NaCl, 1% NP-40, 0.5% sodium deoxycholate, 0.1% SDS) containing a protease inhibitor cocktail (Roche Applied Science). The cytosolic fractions were reduced with β-mercaptoethanol and separated by SDS PAGE. […] Films were imaged using a Multilmage™ Light Cabinet (Alpha Innotech Corp.) and analyzed using NIH Image J. Bands were normalized to a GAPDH loading control and expressed as percentage band intensity of untreated cells.
# [5] = test system: OPM-2; assay: MTS assay (cell viability / metabolic activity)
# Description: (§3) Percent cell viability was determined using MTS solution (Promega, Madison, Wis.) by measuring absorbance at 490 nm using a Synergy HT Multi-Detection Microplate Reader (BioTek Instruments, Inc., Winooski, Vt.) with untreated cells being 100%. GraphPad Prism (GraphPad Software Inc., La Jolla, Calif.) was used to analyze data by non-linear regression with the log (inhibitor) vs. the response with a variable slope with the IC50 calculated. Data are expressed as a percentage of maximum metabolic activity. The experiments were performed in triplicate.
# To determine if the HMCLs were sensitive to treatment with IFNα fusion protein, HMCLs were incubated with varying concentrations of anti-CD138-IFNα, and cell viability was assessed. Anti-CD138-IFNα was used to target IFNα to the MM cell lines while anti-CD20-IFNα was used as an untargeted control. […] The MM cell lines differed in their response to treatment with the fusion proteins.
# [6] = test system: 8226/Dox40; assay: MTS assay (cell viability / metabolic activity); details: 8226/Dox40, 3 days
# Description: as §3
# (§4) To determine if the HMCLs were sensitive to treatment with IFNα fusion protein, HMCLs were incubated with varying concentrations of anti-CD138-IFNα, and cell viability was assessed. Anti-CD138-IFNα was used to target IFNα to the MM cell lines while anti-CD20-IFNα was used as an untargeted control. After 3 days of treatment, cell viability was measured by MTS activity. The MM cell lines differed in their response to treatment with the fusion proteins.
# [7] = test system: XG-2; assay: MTS assay (cell viability / metabolic activity); details: XG-2, 3 days
# Description: as §3, §4
# [8] = test system: XG-1; assay: MTS assay (cell viability / metabolic activity); details: XG-1, 3 days
# Description: as §3, §4
# [9] = test system: S6B45; assay: MTS assay (cell viability / metabolic activity); details: S6B45, 3 days
# Description: as §3, §4
# [10] = test system: OPM-1; assay: MTS assay (cell viability / metabolic activity)
# Description: as §3, §4
# [11] = test system: Delta 47; assay: MTS assay (cell viability / metabolic activity)
# Description: as §3, §4
# [12] = test system: U266; assay: Cell cycle analysis (PI DNA content, flow cytometry); details: U266, 500 pM, 4 days
# Description: (§5) Cells were incubated with 1 ml of hypotonic DNA staining buffer (1 mg/ml sodium citrate, 100 μg/ml PI, 20 μg/ml RNase A, and 0.3% Triton X-100 in dH2O) for 30-60 min at 4° C. in the dark. Cells were analyzed by flow cytometry and cell cycle analysis performed using FlowJo software with the Watson Model.
# (§6) Cells were incubated with 1 ml of hypotonic DNA staining buffer (1 mg/ml sodium citrate, 100 μg/ml PI, 20 μg/ml RNase A, and 0.3% Triton X-100) for 30-60 minutes at 4° C. in the dark. Cells were analyzed by flow cytometry and cell cycle analysis performed using FlowJo software with the Watson Model.
# [13] = test system: ANBL-6; assay: as above; details: ANBL-6, 500 pM, 4 days
# Description: as §5, §6
# [14] = test system: OCI-My5; assay: as above; details: OCI-My5, 500 pM, 4 days
# Description: as §5, §6
substance,measurement,setting,value
"anti-CD138-IFNα: Fusion protein: murine B-B4 anti-CD138 variable regions, human IgG1κ constant regions, human IFNα2 fused to the antibody C-terminus via SGGGGS linker",ppRb levels (Western blot),[1],decreased
same,ppRb levels (Western blot),[2],decreased
same,ppRb levels (Western blot),[3],decreased
same,IRF-4 expression (Western blot),[4],decrease was similar
same,"cell viability (MTS assay), result in words","[5]; OPM-2, 3 days",little or no effect
same,"cell viability (MTS assay), result in words","[5]; OPM-2, treatment increased to 4 days (data not shown)",decrease in viability
same,"cell viability (MTS assay), result in words",[6],intermediate effect
same,"cell viability (MTS assay), result in words",[6]; listed as Anti-CD138-IFNα2,some effect was observed only at high concentrations
same,"cell viability (MTS assay), result in words",[7],little or no effect
same,"cell viability (MTS assay), result in words",[8],little or no effect
same,"cell viability (MTS assay), result in words",[9],intermediate effect
same,"cell viability (MTS assay), result in words",[9]; listed as Anti-CD138-IFNα2,some effect was observed only at high concentrations
same,"cell viability (MTS assay), result in words","[10]; OPM-1, 3 days",little or no effect
same,"cell viability (MTS assay), result in words","[10]; OPM-1, treatment increased to 4 days (data not shown)",decrease in viability
same,"cell viability (MTS assay), result in words","[11]; Delta 47, 3 days",little or no effect
same,"cell viability (MTS assay), result in words","[11]; Delta 47, treatment increased to 4 days (data not shown)",decrease in viability
same,% G1,[12],53.9%
same,% G2/M,[12],15.1%
same,% S,[12],21.4%
same,>G2,[12],5.5%
same,Sub G0/G1,[12],13.2%
same,% G1,[13],63.6%
same,% G2/M,[13],18.0%
same,% S,[13],14.0%
same,>G2,[13],0.0%
same,Sub G0/G1,[13],19.6%
same,% G1,[14],25.6%
same,% G2/M,[14],20.5%
same,% S,[14],49.0%
same,>G2,[14],1.5%
same,Sub G0/G1,[14],17.9%
same,"changes in cell cycle / DNA content, result in words",[14],did not cause apoptosis or blocks to cell cycle progression

# Source: patent publication US9803021B2 (The Regents of the University of California, priority 2012, dated 2017)
